According to patent publication US12427200B2 (priority 2019, dated 2025):
Values joined by “and” are separate entries in the source; they are usually repeats but may differ in a detail not shown here. Equal entries are not always repeated.

Legend:
[1] = system: A/Perth/261/2009 (H1N1), H275Y mutation; settings: mouse, in vivo
[2] = system: A/Texas/23/2012 (H1N1) H275Y; parameters: species or system BALB/c mice; settings: mouse, in vivo
[3] = system: H3N2 E119V (A/Texas/12/2007); format: cell-based, Influenza A virus
[4] = system: A/Perth/261/2009 (H1N1) H275Y; parameters: species or system BALB/c mice; settings: mouse, in vivo
[5] = system: NA variants H275Y (H1N1), E119V and R292K (H3N2), R152K (B); test: biochemical; format: biochemical, Influenza virus
[6] = system: H1N1 H275Y (A/Texas/23/2012); format: cell-based, Influenza A virus
[7] = target: neuraminidase of live influenza A (H3N2) viruses (Influenza A virus, UniProt D1FVK3, I119V); test: biochemical
[8] = target: NA variants H275Y (H1N1), E119V and R292K (H3N2), R152K (B) (Influenza A virus (H3N2), UniProt D1FVK3, I119V); test: biochemical; format: biochemical

Compound	Median Survival [1]	Percent Body Weight (grams) [2]	Protection from lethal challenge [2]	EC50 [3] [nM]	Survival [4]	Percent Body Weight (grams) ([4]; po)	% Survival [1] [%]	Loss in potency against variants (up to) [5] [fold]	EC50 [6] [nM]	IC50 [7] [nM]	IC50 [8] [nM]
CCOC(=O)C1=C[C@@H](OC(CC)CC)[C@H](NC(C)=O)[C@@H](N)C1 [Oseltamivir phosphate]	7										
CCOC(=O)C1=C[C@@H](OC(CC)CC)[C@H](NC(C)=O)[C@@H](N)C1 [Oseltamivir, oseltamivir]		84% and 78% and 100% and 97% and 92%	failed to protect	> 100	no survivors	89% and 84% and 82% and 74% and 100% and 102% and 99%	20	> 100	> 100		
CC(=O)N[C@H]1[C@H]([C@H](O)[C@H](O)CO)OC(C(=O)O)=C[C@@H]1N=C(N)N [Zanamivir, zanamivir]				74				> 10	93.8	3.08	3.8
